1 compound from paper PMC12683216, “Using High‐Throughput Screening to Identify Crosslinking Peptides That Control Cell‐Mediated Matrix Degradation” (Advanced Healthcare Materials, 2025) can be followed below.

Where a SMILES comes first, the peptide text is derived from it. [ ]: non-standard residue; d: D form. βAla = NCCC(=O)O

The nature of the data set: Peptide stability in fresh cell culture media (Blank). To be noted: no cell contact, 24 h, LC-MS. It counts as in vitro ADME. On the procedure: To verify that MMP‐14 can degrade the KLVAD‐LM and PanMMP peptides, recombinant MMP‐14 was added to the different peptides, both in PBS and in the Cell and Media culture conditions (Figure 7 ). Peptides were incubated under three conditions: in fresh cell culture media (“Blank”), in media with cells present (“Cells”), and in cell‐conditioned media (“Media”). This was done for both hMSCs and hUVECs, and was also done with and without the addition of exogenous MMP.
The extent of peptide degradation was quantified for samples both with and without the addition of exogenous MMP‐14. […] Error bars indicate ± standard deviation, N = 3 with technical triplicates.
hUVECs (75000 per well) or hMSCs (36000 per well) were seeded into a 48 well plate, and 500 µL media was added to the wells. […] The peptide libraries were dissolved at a stock solution of 10 mM total peptide content. […]
For all degradation studies using soluble peptides, a non‐proteolytically degradable NH2‐βFβAβAβAβAβAβA‐amide (βFβA6) peptide, where βF is β‐phenylalanine and βA is β‐alanine, was added at a 50 µM concentration and used as an internal standard. Peptide degradation ratios were measured by LC‐MS and analyzed by Xcalibur. The relative concentrations of the peptide were calculated by the ratio of the peak area of the peptide and the peak area of βFβA6.

`CC[C@H](C)[C@H](NC(=O)CNC(=O)[C@H](CCC(N)=O)NC(=O)[C@@H]1CCCN1C(=O)CNC(=O)CCNC(C)=O)C(=O)N[C@@H](Cc1c[nH]c2ccccc12)C(=O)NCC(=O)N[C@@H](CCC(N)=O)C(=O)NCCC(N)=O` [PanMMP, reference compound] (Ac-[βAla]GPQGIWGQ[βAla]-NH2): the “degradation in the Blank condition without added MMP‐14 (hydrolytic stability)” value is “negligible degradation”.
